Paper PMC5545170 (Pediatric diabetes, 2017)
pIC50: −log10 of the molar value.

Experiments:
Assay in all cases: spectrophotometric GDH activity in […] cell homogenate
Type in all cases: biochemical
[1] = target: GDH (glutamate dehydrogenase, GLUD1) (Homo sapiens, UniProt P00367, H507Y)
[2] = target: GDH (glutamate dehydrogenase, GLUD1) (Homo sapiens, UniProt P00367, S498L)
[3] = target: GDH (glutamate dehydrogenase, GLUD1) (Homo sapiens, UniProt P00367)
Chain of GDH (glutamate dehydrogenase, GLUD1) (Homo sapiens, UniProt P00367) (P00367 54-558): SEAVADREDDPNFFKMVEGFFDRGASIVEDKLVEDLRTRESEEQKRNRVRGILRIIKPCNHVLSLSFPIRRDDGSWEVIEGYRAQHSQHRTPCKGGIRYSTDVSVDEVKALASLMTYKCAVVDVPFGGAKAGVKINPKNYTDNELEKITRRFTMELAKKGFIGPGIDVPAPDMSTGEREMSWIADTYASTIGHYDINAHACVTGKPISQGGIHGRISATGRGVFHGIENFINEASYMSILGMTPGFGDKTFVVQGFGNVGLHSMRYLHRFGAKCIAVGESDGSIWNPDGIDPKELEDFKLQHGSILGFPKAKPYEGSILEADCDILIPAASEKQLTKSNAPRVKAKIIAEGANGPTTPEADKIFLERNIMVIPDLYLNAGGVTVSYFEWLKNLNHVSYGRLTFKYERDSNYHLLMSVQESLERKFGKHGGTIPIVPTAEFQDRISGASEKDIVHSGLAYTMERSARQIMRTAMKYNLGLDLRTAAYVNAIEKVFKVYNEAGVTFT

Chain of GDH (glutamate dehydrogenase, GLUD1) (Homo sapiens, UniProt P00367, S498L) (P00367 54-558 S498L): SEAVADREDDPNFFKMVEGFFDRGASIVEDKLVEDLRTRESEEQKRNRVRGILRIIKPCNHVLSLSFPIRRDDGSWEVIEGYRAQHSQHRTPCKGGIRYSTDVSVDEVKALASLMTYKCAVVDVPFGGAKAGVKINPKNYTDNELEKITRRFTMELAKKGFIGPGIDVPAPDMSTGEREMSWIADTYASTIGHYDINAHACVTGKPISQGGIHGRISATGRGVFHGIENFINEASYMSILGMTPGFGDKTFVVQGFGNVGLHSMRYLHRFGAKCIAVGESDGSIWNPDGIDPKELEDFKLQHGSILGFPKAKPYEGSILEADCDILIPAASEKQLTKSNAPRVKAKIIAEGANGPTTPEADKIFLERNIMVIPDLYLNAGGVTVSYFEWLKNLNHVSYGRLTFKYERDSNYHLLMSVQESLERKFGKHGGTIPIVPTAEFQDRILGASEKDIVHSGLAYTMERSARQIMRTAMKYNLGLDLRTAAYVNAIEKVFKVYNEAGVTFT
Chain of GDH (glutamate dehydrogenase, GLUD1) (Homo sapiens, UniProt P00367, H507Y) (P00367 54-558 H507Y): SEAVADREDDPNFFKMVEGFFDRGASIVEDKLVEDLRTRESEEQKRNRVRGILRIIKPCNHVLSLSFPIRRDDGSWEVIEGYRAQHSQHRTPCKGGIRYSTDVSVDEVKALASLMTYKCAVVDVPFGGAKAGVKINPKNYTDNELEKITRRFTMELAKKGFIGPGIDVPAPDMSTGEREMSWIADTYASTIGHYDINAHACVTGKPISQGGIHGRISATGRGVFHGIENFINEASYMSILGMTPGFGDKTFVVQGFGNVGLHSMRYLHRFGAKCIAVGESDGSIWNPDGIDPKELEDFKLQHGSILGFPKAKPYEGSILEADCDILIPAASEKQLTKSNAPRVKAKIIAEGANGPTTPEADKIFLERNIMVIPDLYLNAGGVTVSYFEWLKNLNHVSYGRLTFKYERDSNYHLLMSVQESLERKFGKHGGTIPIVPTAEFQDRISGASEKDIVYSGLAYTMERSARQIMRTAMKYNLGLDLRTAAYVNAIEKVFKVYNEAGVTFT

SMILES | pIC50 [1] | pIC50 [2] | pIC50 [3]
O=C(O[C@@H]1Cc2c(O)cc(O)cc2O[C@@H]1c1cc(O)c(O)c(O)c1)c1cc(O)c(O)c(O)c1 [EGCG] | 5.99 | 5.97 | 5.98
Nc1nc2c(ncn2[C@@H]2O[C@H](COP(=O)(O)OP(=O)(O)OP(=O)(O)O)[C@@H](O)[C@H]2O)c(=O)[nH]1 [GTP] | 3.50 | 4.39 | 7.32
